Earlier results, collected in PubChem BioAssay AID1259409 (Chemical Carcinogenesis Research Information System (CCRIS), 2018).

Tested on: rodent chemically induced tumor inhibition, incidence and multiplicity
Assay: CCRIS tumor inhibitor studies

COc1ccc2c(c1)c(CC(=O)O)c(C)n2C(=O)c1ccc(Cl)cc1
tumour outcome (control, treated, inhibition, significance) (Carcinogen: 1,2-DIMETHYLHYDRAZINE DIHYDROCHLORIDE, 306-37-6, Dose [Inhibitor]: 20 MG/L TAP WATER DAILY FOR 32 WK STARTING SIMULTANEOUSLY WITH CARCINOGEN TREATMENT (STUDY DURATION: 32 WK), Route [Inhibitor]: ORAL, Species: RAT, Strain/Sex: SPRAGUE-DAWLEY/MALE, Target Tissue: Type of Lesion: LARGE INTESTINE: TUMOR, Dose [Carcinogen]: 20 MG/KG BW 1/WK FOR 20 WK, Promoter: NONE USED): 88%, 56%, 36%, p<0.005 | tumour outcome (control, treated, inhibition, significance) (Carcinogen: 1,2-DIMETHYLHYDRAZINE DIHYDROCHLORIDE, 306-37-6, Dose [Inhibitor]: 20 MG/L TAP WATER DAILY FOR 32 WK STARTING SIMULTANEOUSLY WITH CARCINOGEN TREATMENT (STUDY DURATION: 32 WK), Route [Inhibitor]: ORAL, Species: RAT, Strain/Sex: SPRAGUE-DAWLEY/MALE, Target Tissue: Type of Lesion: SMALL INTESTINE: TUMOR, Dose [Carcinogen]: 20 MG/KG BW 1/WK FOR 20 WK, Promoter: NONE USED): 46%, 31%, 33%, not significant | tumour outcome (control, treated, inhibition, significance) (Carcinogen: 1,2-DIMETHYLHYDRAZINE, 540-73-8, Dose [Inhibitor]: 20 MG/L IN DRINKING WATER DAILY FOR 15 WK STARTING 34 D AFTER CARCINOGEN ADMINISTRATION (STUDY DURATION: 20 WK), Route [Inhibitor]: ORAL, Species: RAT, Strain/Sex: SPRAGUE-DAWLEY/MALE, Target Tissue: Type of Lesion: INTESTINE: TUMOR, Dose [Carcinogen]: 30 MG/KG BW ONCE, Promoter: NONE USED): 9/10 (90%), 2/9 (22%), 76%, p 0.0019 | tumour outcome (control, treated, inhibition, significance) (Carcinogen: 1-HYDROXYANTHRAQUINONE, 129-43-1, Dose [Inhibitor]: 0, 16 PMM IN DRINKING WATER FOR 48 WK (STUDY DURATION: 48 WK), Route [Inhibitor]: ORAL, Species: RAT, Strain/Sex: ACI/MALE, Target Tissue: Type of Lesion: LARGE BOWEL: ADENOCARCINOMA, Dose [Carcinogen]: 1.5% IN DIET FOR 48 WK, Promoter: NONE USED): 7/27 (26%), 0/14 (0%), 100%), p= 0.03 | tumour outcome (control, treated, inhibition, significance) (Carcinogen: 1-HYDROXYANTHRAQUINONE, 129-43-1, Dose [Inhibitor]: 0, 16 PPM IN DRINKING WATER FOR 48 WK (STUDY DURATION: 48 WK), Route [Inhibitor]: ORAL, Species: RAT, Strain/Sex: ACI/MALE, Target Tissue: Type of Lesion: CECUM: ADENOCARCINOMA, Dose [Carcinogen]: 1.5% IN DIET FOR 48 WK, Promoter: NONE USED): 3/27 (11%), 0/14 (0%), 100%, not calculated | tumour outcome (control, treated, inhibition, significance) (Carcinogen: 1-HYDROXYANTHRAQUINONE, 129-43-1, Dose [Inhibitor]: 0, 16 PPM IN DRINKING WATER FOR 48 WK (STUDY DURATION: 48 WK), Route [Inhibitor]: ORAL, Species: RAT, Strain/Sex: ACI/MALE, Target Tissue: Type of Lesion: CECUM: ADENOMA, Dose [Carcinogen]: 1.5% IN DIET FOR 48 WK, Promoter: NONE USED): 2/27 (7%), 0/14 (0%), 100%, not calculated | tumour outcome (control, treated, inhibition, significance) (Carcinogen: 1-HYDROXYANTHRAQUINONE, 129-43-1, Dose [Inhibitor]: 0, 16 PPM IN DRINKING WATER FOR 48 WK (STUDY DURATION: 48 WK), Route [Inhibitor]: ORAL, Species: RAT, Strain/Sex: ACI/MALE, Target Tissue: Type of Lesion: COLON: ADENOCARCINOMA, Dose [Carcinogen]: 1.5% IN DIET FOR 48 WK, Promoter: NONE USED): 5/27 (19%), 0/14 (0%), 100%, not calculated | tumour outcome (control, treated, inhibition, significance) (Carcinogen: 1-HYDROXYANTHRAQUINONE, 129-43-1, Dose [Inhibitor]: 0, 16 PPM IN DRINKING WATER FOR 48 WK (STUDY DURATION: 48 WK), Route [Inhibitor]: ORAL, Species: RAT, Strain/Sex: ACI/MALE, Target Tissue: Type of Lesion: COLON: ADENOMA OR ADENOCARCINOMA, Dose [Carcinogen]: 1.5% IN DIET FOR 48 WK, Promoter: NONE USED): 9/27 (33%), 0/14 (0%), 100%, p<0.01 | tumour outcome (control, treated, inhibition, significance) (Carcinogen: 1-HYDROXYANTHRAQUINONE, 129-43-1, Dose [Inhibitor]: 0, 16 PPM IN DRINKING WATER FOR 48 WK (STUDY DURATION: 48 WK), Route [Inhibitor]: ORAL, Species: RAT, Strain/Sex: ACI/MALE, Target Tissue: Type of Lesion: COLON: ADENOMA, Dose [Carcinogen]: 1.5% IN DIET FOR 48 WK, Promoter: NONE USED): 4/27 (15%), 0/14 (0%), 100%, not calculated | outcome (Carcinogen: 1-HYDROXYANTHRAQUINONE, 129-43-1, Dose [Inhibitor]: 0, 16 PPM IN DRINKING WATER FOR 48 WK (STUDY DURATION: 48 WK), Route [Inhibitor]: ORAL, Species: RAT, Strain/Sex: ACI/MALE, Target Tissue: Type of Lesion: FORESTOMACH: PAPILLOMA, Dose [Carcinogen]: 1.5% IN DIET FOR 48 WK, Promoter: NONE USED): 14/27 (52%), 2/14 (14%), p= 0.01 | tumour outcome (control, treated, inhibition, significance) (Carcinogen: 1-HYDROXYANTHRAQUINONE, 129-43-1, Dose [Inhibitor]: 0, 16 PPM IN DRINKING WATER FOR 48 WK (STUDY DURATION: 48 WK), Route [Inhibitor]: ORAL, Species: RAT, Strain/Sex: ACI/MALE, Target Tissue: Type of Lesion: FORESTOMACH: TUMOR, Dose [Carcinogen]: 1.5% IN DIET FOR 48 WK, Promoter: NONE USED): 14/27 (52%), 2/14 (14%), 73%, p<0.01 | tumour outcome (control, treated, inhibition, significance) (Carcinogen: 1-HYDROXYANTHRAQUINONE, 129-43-1, Dose [Inhibitor]: 0, 16 PPM IN DRINKING WATER FOR 48 WK (STUDY DURATION: 48 WK), Route [Inhibitor]: ORAL, Species: RAT, Strain/Sex: ACI/MALE, Target Tissue: Type of Lesion: LARGE BOWEL: ADENOMA, Dose [Carcinogen]: 1.5% IN DIET FOR 48 WK, Promoter: NONE USED): 5/27 (19%), 0/14 (0%), 100%, not calculated | tumour outcome (control, treated, inhibition, significance) (Carcinogen: 1-HYDROXYANTHRAQUINONE, 129-43-1, Dose [Inhibitor]: 0, 16 PPM IN DRINKING WATER FOR 48 WK (STUDY DURATION: 48 WK), Route [Inhibitor]: ORAL, Species: RAT, Strain/Sex: ACI/MALE, Target Tissue: Type of Lesion: LARGE BOWEL: TUMOR, Dose [Carcinogen]: 1.5% IN DIET FOR 48 WK, Promoter: NONE USED): 12/27 (44%), 0/14 (0%), 100%, not calculated | tumour outcome (control, treated, inhibition, significance) (Carcinogen: 1-HYDROXYANTHRAQUINONE, 129-43-1, Dose [Inhibitor]: 0, 16 PPM IN DRINKING WATER FOR 48 WK (STUDY DURATION: 48 WK), Route [Inhibitor]: ORAL, Species: RAT, Strain/Sex: ACI/MALE, Target Tissue: Type of Lesion: LIVER: NEOPLASTIC NODULE, Dose [Carcinogen]: 1.5% IN DIET FOR 48 WK, Promoter: NONE USED): 1/27 (4%), 0/14 (0%), 100%, not calculated | tumour outcome (control, treated, inhibition, significance) (Carcinogen: 1-HYDROXYANTHRAQUINONE, 129-43-1, Dose [Inhibitor]: 0, 16 PPM IN DRINKING WATER FOR 48 WK (STUDY DURATION: 48 WK), Route [Inhibitor]: ORAL, Species: RAT, Strain/Sex: ACI/MALE, Target Tissue: Type of Lesion: LIVER: TUMOR, Dose [Carcinogen]: 1.5% IN DIET FOR 48 WK, Promoter: NONE USED): 1/27 (4%), 0/14 (0%), 100%, not calculated | tumour outcome (control, treated, inhibition, significance) (Carcinogen: 2-ACETYLAMINOFLUORENE, 53-96-3, Dose [Inhibitor]: 0, 10 PPM IN DRINKING WATER FOR 18 WK BEGINNING 1 WK PRIOR TO CARCINOGEN TREATMENT (STUDY DURATION: 36 WK), Route [Inhibitor]: ORAL, Species: RAT, Strain/Sex: ACI/N/MALE, Target Tissue: Type of Lesion: LIVER: TUMOR, Dose [Carcinogen]: 200 PPM IN DIET FOR 16 WK, Promoter: NONE USED): 10/10 (100%), 1/10 (10%), 90%, p=0.00006 | outcome (Carcinogen: 4-HYDROXYBUTYL(BUTYL)NITROSAMINE [3817-11-6], Dose [Inhibitor]: 20 MG/KG IN DIET 1 WK AFTER CARCINOGEN (STUDY DURATION: 32 WK), Route [Inhibitor]: DIET, Species: MOUSE, Strain/Sex: B6D2F1/MALE, Target Tissue: Type of Lesion: BLADDER: CARCINOMA, Dose [Carcinogen]: 7.5 MG/WK FOR 12 WK): 32, 6, 81% | outcome (Carcinogen: 4-HYDROXYBUTYL(BUTYL)NITROSAMINE [3817-11-6], Dose [Inhibitor]: 20 MG/KG IN DIET 1 WK AFTER LAST CARCINOGEN DOSE (STUDY DURATION: 61 WK), Route [Inhibitor]: DIET, Species: MOUSE, Strain/Sex: B6D2F1/MALE, Target Tissue: Type of Lesion: BLADDER: CARCINOMA, Dose [Carcinogen]: 7.5 MG/WK FOR 12 WK): 66, 26, 61% | outcome (Carcinogen: 4-HYDROXYBUTYL(BUTYL)NITROSAMINE [3817-11-6], Dose [Inhibitor]: 20 MG/KG IN DIET 1 WK AFTER LAST CARCINOGEN DOSE FOR 12 WK (STUDY DURATION: 42 WK), Route [Inhibitor]: DIET, Species: MOUSE, Strain/Sex: B6D2F1/MALE, Target Tissue: Type of Lesion: BLADDER: CARCINOMA, Dose [Carcinogen]: 7.5 MG/WK FOR 12 WK): 31, 16, 48%
